Results: patent US20240199605A1, “SMALL MOLECULAR INHIBITORS OF NF-kB INDUCING KINASE” (Janssen Pharmaceutica NV, priority 2019, published 2024)

Key:
[1] = tested on: p-IKKα levels in L363 (NIK translocated multiple myeloma) cells; experiment: Effect of compounds on p-IKKα levels in L363 cells (AlphaLISA SureFire Ultra); assay type: cell-based, human; conditions: Homo sapiens, L-363, 6 h, BAFF stimulated, MG132, 6 h, average of values, read-out: Assay 2 IC50
Method in brief: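 Inhibition of p-IKKα (Ser176/180) read by AlphaLISA after 6 h, 37 °C compound exposure (11-point 1:3 series, 0.3% DMSO) of L363 cells pre-incubated overnight ± 250 ng/ml BAFF and plated ± BAFF ± 10 μM MG132. Normalised to BAFF/MG132/DMSO and unstimulated controls; IC50 by sigmoidal fitting, duplicates.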

[2] = biological target: recombinant human NF-kappaB-inducing kinase (NIK/MAP3K14) (Homo sapiens (Human), UniProt Q99558); experiment: Inhibition of auto-phosphorylation of recombinant human NIK/MAP3K14 (AlphaScreen); assay type: biochemical; conditions: NIK auto-phosphorylation, 5 μM ATP, 1 nM NIK, 2 h at 25° C.; average of values
recombinant human NF-kappaB-inducing kinase (NIK/MAP3K14), sequence (Q99558 whole entry): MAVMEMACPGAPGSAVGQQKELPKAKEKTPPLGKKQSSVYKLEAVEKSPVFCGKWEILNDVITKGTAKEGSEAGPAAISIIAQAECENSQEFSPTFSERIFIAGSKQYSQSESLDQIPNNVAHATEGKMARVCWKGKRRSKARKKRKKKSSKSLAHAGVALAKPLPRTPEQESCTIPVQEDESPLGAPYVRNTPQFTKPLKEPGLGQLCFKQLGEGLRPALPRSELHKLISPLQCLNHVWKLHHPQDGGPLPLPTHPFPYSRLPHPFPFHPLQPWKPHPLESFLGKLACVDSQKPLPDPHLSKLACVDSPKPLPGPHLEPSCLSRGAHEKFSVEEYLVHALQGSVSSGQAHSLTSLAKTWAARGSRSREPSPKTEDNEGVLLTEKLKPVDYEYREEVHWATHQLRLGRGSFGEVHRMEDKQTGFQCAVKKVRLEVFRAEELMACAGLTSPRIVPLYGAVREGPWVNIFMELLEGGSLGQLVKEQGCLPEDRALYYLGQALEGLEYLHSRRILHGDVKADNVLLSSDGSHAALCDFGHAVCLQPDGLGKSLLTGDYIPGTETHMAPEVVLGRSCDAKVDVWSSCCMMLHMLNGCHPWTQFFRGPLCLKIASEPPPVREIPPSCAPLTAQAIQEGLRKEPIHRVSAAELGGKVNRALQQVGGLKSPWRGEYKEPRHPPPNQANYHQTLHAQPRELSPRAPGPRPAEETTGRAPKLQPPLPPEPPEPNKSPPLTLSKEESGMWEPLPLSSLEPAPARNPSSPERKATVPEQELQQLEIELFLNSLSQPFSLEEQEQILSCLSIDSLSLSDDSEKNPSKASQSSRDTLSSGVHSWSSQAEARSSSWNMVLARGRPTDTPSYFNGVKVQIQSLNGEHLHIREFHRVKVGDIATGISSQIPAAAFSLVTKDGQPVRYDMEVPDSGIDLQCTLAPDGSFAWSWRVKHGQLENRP
Method in brief: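 AlphaScreen read-out (anti-phospho-IKK Ser176/180 antibody, Protein A acceptor and glutathione donor beads) of NIK auto-phosphorylation. Reaction: 1 nM enzyme, 5 μM ATP, Tris pH 7.5 buffer with Mg2+ and vanadate, 2 h at 25° C., final DMSO 0.7%. IC50 came from a sigmoidal curve fit.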

| SMILES | IC50 [1] | IC50 [2] |
| --- | --- | --- |
| C[C@@](O)(C#Cc1cccc(-c2ncc3ncnc(N)c3n2)c1)c1nccs1 [Example 137, (R)-4-(3-(8-Aminopyrimido[5,4-d]pyrimidin-2-yl)phenyl)-2-(thiazol-2-yl)but-3-yn-2-ol] | 9.3 nM | ≤ 0.5 nM |
| Cc1nc(N)c2nc(-c3cccc(C#C[C@](C)(O)c4cnccn4)c3)ccc2n1 [Example 201, (S)-4-[3-(4-Amino-2-methyl-pyrido[3,2-d]pyrimidin-6-yl)phenyl]-2-pyrazin-2-yl-but-3-yn-2-ol] | > 5000 nM | 4030 nM |
| CN1CC[C@@](O)(C#Cc2cccc(-c3nc(C(F)(F)F)c4ccnc(N)c4n3)c2)C1=O [Example 38, (R)-3-((3-(8-Amino-4-(trifluoromethyl)pyrido[3,4-d]pyrimidin-2-yl)phenyl)ethynyl)-3-hydroxy-1-methylpyrrolidin-2-one] | 40 nM | 0.7 nM |
| CC(C)Cc1cnc(N)c2nc(-c3cccc(C#C[C@]4(O)CCN(C)C4=O)c3)ncc12 [Example 130, (R)-3-((3-(8-Amino-5-isobutylpyrido[3,4-d]pyrimidin-2-yl)phenyl)ethynyl)-3-hydroxy-1-methylpyrrolidin-2-one] | 58 nM | 0.7 nM |
| Nc1nccc2c(C(F)(F)F)nc(-c3cccc(C#C[C@]4(O)CCc5cccnc54)c3)nc12 [Example 61, (R)-7-((3-(8-Amino-4-(trifluoromethyl)pyrido[3,4-d]pyrimidin-2-yl)phenyl)ethynyl)-6,7-dihydro-5H-cyclopenta[b]pyridin-7-ol] | 170 nM | 4 nM |
| Cc1nc(N)c2nc(-c3cccc(C#C[C@]4(O)CCN(C)C4=O)c3)c(C)cc2n1 [Example 178, (R)-3-((3-(4-Amino-2,7-dimethylpyrido[3,2-d]pyrimidin-6-yl)phenyl)ethynyl)-3-hydroxy-1-methylpyrrolidin-2-one] | 820 nM | 18 nM |
| Cc1nc(-c2cccc(C#C[C@@](C)(O)c3nccs3)c2)nc2c(N)nccc12 [Example 48, (R)-4-(3-(8-Amino-4-methylpyrido[3,4-d]pyrimidin-2-yl)phenyl)-2-(thiazol-2-yl)but-3-yn-2-ol] | 16 nM | ≤ 0.5 nM |
| CN1CC[C@@](O)(C#Cc2cccc(-c3ccc4c(n3)c(N)nn4C)c2)C1=O [Example 21, (R)-3-[2-[3-(3-Amino-1-methyl-pyrazolo[4,3-b]pyridin-5-yl)phenyl]ethynyl]-3-hydroxy-1-methyl-pyrrolidin-2-one] | 590 nM | 22 nM |
| Cc1ccc(C#CC2(O)CCCC2)cc1-c1nc2c(N)ncnc2s1 [Example 185, 1-[2-[3-(7-Aminothiazolo[5,4-d]pyrimidin-2-yl)-4-methyl-phenyl]ethynyl]cyclopentanol] | 1520 nM | 11 nM |
| CN1CC[C@@](O)(C#Cc2cccc(-c3ncc4ncnc(N)c4n3)c2)C1=O [Example 13, (R)-3-[2-[3-(4-Aminopyrimido[5,4-d]pyrimidin-6-yl)phenyl]ethynyl]-3-hydroxy-1-methyl-pyrrolidin-2-one] | 2.8 nM | ≤ 0.5 nM |
| CN1CC[C@@](O)(C#Cc2cccc(-c3cc(Cl)c4ncnc(N)c4c3)c2)C1=O [Example 117, (R)-3-((3-(4-Amino-8-chloroquinazolin-6-yl)phenyl)ethynyl)-3-hydroxy-1-methylpyrrolidin-2-one] | 33 nM | ≤ 0.5 nM |
| CN1CC[C@@](O)(C#Cc2cccc(-c3cnc4ncnc(N)c4n3)c2)C1=O [Example 15, (R)-3-[2-[3-(4-Aminopteridin-6-yl)phenyl]ethynyl]-3-hydroxy-1-methyl-pyrrolidin-2-one] | 50 nM | 0.9 nM |
| CN(C)Cc1cnc(N)c2nc(-c3cccc(C#C[C@]4(O)CCN(C)C4=O)c3)ccc12 [Example 172, (R)-3-[2-[3-[8-Amino-5-(dimethylaminomethyl)-1,7-naphthyridin-2-yl]phenyl]ethynyl]-3-hydroxy-1-methyl-pyrrolidin-2-one] | 400 nM | 20 nM |
| CN1CC[C@@](O)(C#Cc2cccc(-c3ccc4ncnc(N5CCC5)c4n3)c2)C1=O [Example 26, (R)-3-((3-(4-(Azetidin-1-yl)pyrido[3,2-d]pyrimidin-6-yl)phenyl)ethynyl)-3-hydroxy-1-methylpyrrolidin-2-one] | 58 nM | 1.2 nM |
| Cc1nc(-c2cccc(C#C[C@@]3(O)CCN(C)C3=O)c2)nc2c(N)ncnc12 [Example 5, (S)-3-((3-(8-Amino-4-methylpyrimido[5,4-d]pyrimidin-2-yl)phenyl)ethynyl)-3-hydroxy-1-methylpyrrolidin-2-one] | 1560 nM | 230 nM |
| Cc1nc(N)c2nc(-c3cccc(C#C[C@@](C)(O)c4cnccn4)c3)ccc2n1 [Example 200, (R)-4-[3-(4-Amino-2-methyl-pyrido[3,2-d]pyrimidin-6-yl)phenyl]-2-pyrazin-2-yl-but-3-yn-2-ol] | 3190 nM | 29 nM |
| CN1CC[C@](O)(C#Cc2cccc(-c3ncc4cc[nH]c(=O)c4n3)c2)C1=O [Example 31, (S)-2-[3-[2-(3-Hydroxy-1-methyl-2-oxo-pyrrolidin-3-yl)ethynyl]phenyl]-7H-pyrido[3,4-d]pyrimidin-8-one] | 550 nM | 23 nM |
| CN(C)Cc1cnc(N)c2nc(-c3cccc(C#C[C@]4(O)CCN(C)C4=O)c3)ncc12 [Example 135, (R)-3-[2-[3-[8-Amino-5-(dimethylaminomethyl)pyrido[3,4-d]pyrimidin-2-yl]phenyl]ethynyl]-3-hydroxy-1-methyl-pyrrolidin-2-one] | 140 nM | 5.7 nM |
| CN1CC[C@@](O)(C#Cc2cccc(-c3cc4c(N)nccc4cn3)c2)C1=O [Example 119, (R)-3-[2-[3-(5-Amino-2,6-naphthyridin-3-yl)phenyl]ethynyl]-3-hydroxy-1-methyl-pyrrolidin-2-one] | 43 nM | 0.7 nM |
| Cc1nc(N)c2nc(-c3cccc(C#CC(C)(O)c4c[nH]cn4)c3)ccc2n1 (racemic) [Example 202, racemic-4-(3-(4-Amino-2-methylpyrido[3,2-d]pyrimidin-6-yl)phenyl)-2-(1H-imidazol-4-yl)but-3-yn-2-ol] | 280 nM | 1 nM |

Other lines, results leading:

| IC50 [1] | IC50 [2] | SMILES |
| --- | --- | --- |
| 240 nM | 4.9 nM | CN1CC[C@@](O)(C#Cc2cccc(-c3ccc4ncnc(N5CC(Cl)C5)c4n3)c2)C1=O [Example 244, (R)-3-((3-(4-(3-Chloroazetidin-1-yl)pyrido[3,2-d]pyrimidin-6-yl)phenyl)ethynyl)-3-hydroxy-1-methylpyrrolidin-2-one] |
| > 5000 nM | 1930 nM | Cc1nc(N)c2nc(-c3cccc(C#C[C@]4(O)C(=O)N(C)[C@H]5C[C@H]54)c3)ccc2n1 [Example 274, (1S,4S,5R)-4-((3-(4-Amino-2-methylpyrido[3,2-d]pyrimidin-6-yl)phenyl)ethynyl)-4-hydroxy-2-methyl-2-azabicyclo[3.1.0]hexan-3-one] |
| 1910 nM | 110 nM | CN1CC[C@@](O)(C#Cc2cccc(-c3ccc4ncnc(NC5COC5)c4n3)c2)C1=O [Example 229, (R)-3-Hydroxy-1-methyl-3-((3-(4-(oxetan-3-ylamino)pyrido[3,2-d]pyrimidin-6-yl)phenyl)ethynyl)pyrrolidin-2-one] |
| 6.9 nM | ≤ 0.5 nM | CNc1cc(-c2cccc(C#C[C@]3(O)CCN(C)C3=O)c2)nc2c(N)ncnc12 [Example 296, (R)-3-[2-[3-[4-Amino-8-(methylamino)pyrido[3,2-d]pyrimidin-6-yl]phenyl]ethynyl]-3-hydroxy-1-methyl-pyrrolidin-2-one] |
| 1190 nM | 40 nM | CN1CC[C@@](O)(C#Cc2cccc(-c3ccc4ncnc(N5CC(S(C)(=O)=O)C5)c4n3)c2)C1=O [Example 245, (R)-3-Hydroxy-1-methyl-3-((3-(4-(3-(methylsulfonyl)azetidin-1-yl)pyrido[3,2-d]pyrimidin-6-yl)phenyl)ethynyl)pyrrolidin-2-one] |
| 160 nM | 3.5 nM | COCc1nc(N)c2nc(-c3cccc(C#C[C@]4(O)CCN(C)C4=O)c3)ccc2n1 [Example 206, (R)-3-((3-(4-Amino-2-(methoxymethyl)pyrido[3,2-d]pyrimidin-6-yl)phenyl)ethynyl)-3-hydroxy-1-methylpyrrolidin-2-one] |
| 100 nM | 1.2 nM | CN1CC[C@@](O)(C#Cc2cccc(-c3ccc4nc(N)nc(N)c4n3)c2)C1=O [Example 203, (R)-3-((3-(2,4-Diaminopyrido[3,2-d]pyrimidin-6-yl)phenyl)ethynyl)-3-hydroxy-1-methylpyrrolidin-2-one] |
| > 5000 nM | 320 nM | CN1CC[C@@](O)(C#Cc2cccc(-c3nc4ncnc(N)c4s3)c2)C1=O [Example 214, (R)-3-((3-(7-Aminothiazolo[4,5-d]pyrimidin-2-yl)phenyl)ethynyl)-3-hydroxy-1-methylpyrrolidin-2-one] |
| 31 nM | 1.9 nM | CC(C)Nc1cc(-c2cccc(C#C[C@]3(O)CCN(C)C3=O)c2)nc2c(N)ncnc12 [Example 297, (R)-3-[2-[3-[4-Amino-8-(isopropylamino)pyrido[3,2-d]pyrimidin-6-yl]phenyl]ethynyl]-3-hydroxy-1-methyl-pyrrolidin-2-one] |
| 1960 nM | 59 nM | CC(C)c1ncnc2ccc(-c3cccc(C#C[C@]4(O)CCN(C)C4=O)c3)nc12 [Example 272, (R)-3-Hydroxy-3-((3-(4-isopropylpyrido[3,2-d]pyrimidin-6-yl)phenyl)ethynyl)-1-methylpyrrolidin-2-one] |
